Patent publication US20110124877A1, “5-BENZYL-4-AZOLYLMETHYL-4-SPIRO[2.4]HEPTANOL DERIVATIVES, METHODS FOR PRODUCING THE SAME, AND AGRO-HORTICULTURAL AGENTS AND INDUSTRIAL MATERIAL PROTECTING AGENTS THEREOF” (KUREHA CORPORATION, priority 2008, published 2011)

What was measured:
[1] = system: sclerotinia rot microorganism (Sclerotinia sclerotiorum); assay: Antimicroorganism effect, mycelial extension on PDA plate; type: cell-based; conditions: PDA plate medium, 50 mg/l, 1 to 3 days, read-out: growth inhibition grade
[2] = system: penicillium microorganism (Penicillium sp.); assay: as above; type: cell-based; conditions: PDA plate medium, 50 mg/l, 1 to 3 days, read-out: growth inhibition grade
[3] = system: wheat septoria bloth microorganism (Septoria tritici); assay: as above; type: cell-based; conditions: Zymoseptoria tritici, PDA plate medium, 50 mg/l, 1 to 3 days, read-out: growth inhibition grade
[4] = system: wood denaturing microorganism (Tyromyces palustris); assay: as above; type: cell-based; conditions: PDA plate medium, 50 mg/l, 1 to 3 days, read-out: growth inhibition grade
[5] = system: Curvularia microorganism (Curvularia sp.); assay: as above; type: cell-based; conditions: PDA plate medium, 50 mg/l, 1 to 3 days, read-out: growth inhibition grade
[6] = system: wheat take-all microorganism (Gaeumannomyces graminis); assay: as above; type: cell-based; conditions: PDA plate medium, 50 mg/l, 1 to 3 days, read-out: growth inhibition grade
[7] = system: wood denaturing microorganism (Coriolus versicolor); assay: as above; type: cell-based; conditions: Trametes versicolor, PDA plate medium, 50 mg/l, 1 to 3 days, read-out: growth inhibition grade
[8] = system: ricesheath blight microorganism (Rhizoctonia solani); assay: as above; type: cell-based; conditions: PDA plate medium, 50 mg/l, 1 to 3 days, read-out: growth inhibition grade
[9] = system: Cladosporium microorganism (Cladosporium sp.); assay: as above; type: cell-based; conditions: PDA plate medium, 50 mg/l, 1 to 3 days, read-out: growth inhibition grade
[10] = system: cucumber fusarium wilt microorganism (Fusarium oxysporum); assay: as above; type: cell-based; conditions: PDA plate medium, 50 mg/l, 1 to 3 days, read-out: growth inhibition grade
[11] = system: citrous blue mold microorganism (Penicillium italicum); assay: as above; type: cell-based; conditions: PDA plate medium, 50 mg/l, 1 to 3 days, read-out: growth inhibition grade
[12] = system: Aureobasidium microorganism (Aureobasidium sp.); assay: as above; type: cell-based; conditions: PDA plate medium, 50 mg/l, 1 to 3 days, read-out: growth inhibition grade
[13] = system: barley stripe microorganism (Pyrenophora graminea); assay: as above; type: cell-based; conditions: PDA plate medium, 50 mg/l, 1 to 3 days, read-out: growth inhibition grade
[14] = system: apple alternaria blotch microorganism (Alternaria alternata); assay: as above; type: cell-based; conditions: PDA plate medium, 50 mg/l, 1 to 3 days, read-out: growth inhibition grade
[15] = system: wheat stagonospora blotch microorganism (Phaeosphaeria nodorum); assay: as above; type: cell-based; conditions: Parastagonospora nodorum, PDA plate medium, 50 mg/l, 1 to 3 days, read-out: growth inhibition grade
[16] = system: Tricoderma microorganism (Trichoderma sp.); assay: as above; type: cell-based; conditions: PDA plate medium, 50 mg/l, 1 to 3 days, read-out: growth inhibition grade
[17] = system: barley scald microorganism (Rhynchosporium secalis); assay: as above; type: cell-based; conditions: PDA plate medium, 50 mg/l, 1 to 3 days, read-out: growth inhibition grade
[18] = system: wheat pink snow mold microorganism (Microdochium nivale); assay: as above; type: cell-based; conditions: PDA plate medium, 50 mg/l, 1 to 3 days, read-out: growth inhibition grade
[19] = system: sugar beet cercospora leaf spot microorganism (Cercospora beticola); assay: as above; type: cell-based; conditions: PDA plate medium, 50 mg/l, 1 to 3 days, read-out: growth inhibition grade
[20] = system: Mucor microorganism (Mucor sp.); assay: as above; type: cell-based; conditions: PDA plate medium, 50 mg/l, 1 to 3 days, read-out: growth inhibition grade
[21] = system: Aspergillus microorganism (Aspergillus sp.); assay: as above; type: cell-based; conditions: PDA plate medium, 50 mg/l, 1 to 3 days, read-out: growth inhibition grade
[22] = system: gray mold microorganism (Botritis cinerea); assay: as above; type: cell-based; conditions: PDA plate medium, 50 mg/l, 1 to 3 days, read-out: growth inhibition grade
[23] = system: rice bakanae disease microorganism (Giberella fujikuroi); assay: as above; type: cell-based; conditions: PDA plate medium, 50 mg/l, 1 to 3 days, read-out: growth inhibition grade
[24] = system: rice seedling blight microorganism (Rhizopus) (Rhizopus oryzae); assay: as above; type: cell-based; conditions: Rhizopus arrhizus, PDA plate medium, 50 mg/l, 1 to 3 days, read-out: growth inhibition grade
[25] = system: wheat fusarium blight microorganism (Fusarium graminearum); assay: microbe, parasite or virus in culture; type: cell-based; conditions: read-out: growth inhibition grade
[26] = system: rice blast microorganism (Pyricularia oryzae); assay: microbe, parasite or virus in culture; type: cell-based; conditions: read-out: growth inhibition grade
[27] = system: wheat eye spot microorganism (Pseudocercosporella herpotrichoides); assay: Antimicroorganism effect, mycelial extension on PDA plate; type: cell-based; conditions: Oculimacula yallundae, PDA plate medium, 50 mg/l, 1 to 3 days, read-out: growth inhibition grade
[28] = system: anthracnose microorganism (Glomerella cingulata); assay: as above; type: cell-based; conditions: Colletotrichum gloeosporioides, PDA plate medium, 50 mg/l, 1 to 3 days, read-out: growth inhibition grade
[29] = system: barley loose smut microorganism (Ustilago nuda); assay: as above; type: cell-based; conditions: PDA plate medium, 50 mg/l, 1 to 3 days, read-out: growth inhibition grade
[30] = system: cucumber gray mold microorganism; assay: Cucumber gray mold preventing effect assay; type: in vivo, Botrytis cinerea; conditions: analogous assay at 25 mg/l
Method: The sprayed leaves were air-dried, and loaded with a paper disc (8 mm in diameter) soaked with a spore suspension of a cucumber gray mold microorganism, and kept at 20 degrees C. and a high humidity. 4 Days after inoculation, the cucumber gray mold severity was investigated, and the protective value was calculated by the following equation. [table]

Compound: OC1(Cn2cncn2)C(Cc2ccc(Cl)cc2)CCC12CC2 (single isomer, unassigned) [Compound I-2, 5-(4-chlorobenzyl)-4-(1H-1,2,4-triazol-1-ylmethyl)-4-spiro[2.4]heptanol]
- melting point: 166 to 167 °C

Compound: OC1(Cn2cncn2)C(Cc2ccc(F)cc2)CCC12CC2 (single isomer, unassigned) [Compound I-7, 5-(4-fluorobenzyl)-4-(1H-1,2,4-triazol-1-ylmethyl)-4-spiro[2.4]heptanol]
- inhibition at 50 µg/mL [1]: > 90%
- inhibition at 50 µg/mL [2]: > 90%
- inhibition at 50 µg/mL [3]: > 90%
- inhibition at 50 µg/mL [4]: > 90%
- inhibition at 50 µg/mL [5]: 70 to 90%
- inhibition at 50 µg/mL [6]: > 90%
- inhibition at 50 µg/mL [7]: > 90%
- inhibition at 50 µg/mL [8]: 70 to 90%
- inhibition at 50 µg/mL [9]: > 90%
- inhibition at 50 µg/mL [10]: > 90%
- inhibition at 50 µg/mL [11]: > 90%
- inhibition at 50 µg/mL [12]: 70 to 90%
- inhibition at 50 µg/mL [13]: > 90%
- inhibition at 50 µg/mL [14]: 70 to 90%
- inhibition at 50 µg/mL [15]: > 90%
- inhibition at 50 µg/mL [16]: > 90%
- inhibition at 50 µg/mL [17]: > 90%
- inhibition at 50 µg/mL [18]: 70 to 90%
- inhibition at 50 µg/mL [19]: > 90%
- inhibition at 50 µg/mL [20]: 70 to 90%
- inhibition at 50 µg/mL [21]: > 90%
- inhibition at 50 µg/mL [22]: > 90%
- inhibition at 50 µg/mL [23]: > 90%
- inhibition at 50 µg/mL [24]: 70 to 90%
- melting point: 89 to 90 °C
- inhibition at 50 µg/mL [25]: > 90%
- inhibition at 50 µg/mL [26]: > 90%
- inhibition at 50 µg/mL [27]: > 90%
- inhibition at 50 µg/mL [28]: > 90%
- inhibition at 50 µg/mL [29]: 70 to 90%

Compound: C[C@]12C[C@H]1C[C@H](Cc1ccc(Cl)cc1)[C@@]2(O)Cn1cncn1 (stereo in doubt) [Comparative Compound (A), 3-(4-chlorobenzyl)-1-methyl-2-(1H-1,2,4-triazol-1-ylmethyl)bicyclo[3.1.0]hexan-2-ol, reference compound]
- Controlling value [30]: 54%

Compound: OC1(Cn2cncn2)C(Cc2ccc(F)cc2)CCC12CC2 (single isomer, unassigned) [Compound I-8, 5-(4-fluorobenzyl)-4-(1H-1,2,4-triazol-1-ylmethyl)-4-spiro[2.4]heptanol]
- melting point: 139 to 140 °C

Compound: OC1(Cn2cncn2)C(Cc2cccc(Cl)c2)CCC12CC2 (single isomer, unassigned) [Compound I-3, 5-(3-chlorobenzyl)-4-(1H-1,2,4-triazol-1-ylmethyl)-4-spiro[2.4]heptanol]
- inhibition at 50 µg/mL [1]: > 90%
- inhibition at 50 µg/mL [2]: > 90%
- inhibition at 50 µg/mL [3]: > 90%
- inhibition at 50 µg/mL [4]: > 90%
- inhibition at 50 µg/mL [5]: 70 to 90%
- inhibition at 50 µg/mL [6]: > 90%
- inhibition at 50 µg/mL [7]: > 90%
- inhibition at 50 µg/mL [8]: 70 to 90%
- inhibition at 50 µg/mL [9]: > 90%
- inhibition at 50 µg/mL [10]: > 90%
- inhibition at 50 µg/mL [11]: > 90%
- inhibition at 50 µg/mL [12]: 70 to 90%
- inhibition at 50 µg/mL [13]: > 90%
- inhibition at 50 µg/mL [14]: 70 to 90%
- inhibition at 50 µg/mL [15]: > 90%
- inhibition at 50 µg/mL [16]: > 90%
- inhibition at 50 µg/mL [17]: > 90%
- inhibition at 50 µg/mL [18]: 70 to 90%
- inhibition at 50 µg/mL [19]: > 90%
- inhibition at 50 µg/mL [20]: 70 to 90%
- inhibition at 50 µg/mL [21]: > 90%
- inhibition at 50 µg/mL [22]: > 90%
- inhibition at 50 µg/mL [23]: > 90%
- inhibition at 50 µg/mL [24]: 70 to 90%
- melting point: 84.5 to 85.5 °C
- inhibition at 50 µg/mL [25]: > 90%
- inhibition at 50 µg/mL [26]: > 90%
- inhibition at 50 µg/mL [27]: > 90%
- inhibition at 50 µg/mL [28]: > 90%
- inhibition at 50 µg/mL [29]: 70 to 90%

Compound: CC1(C)CC12CCC(Cc1ccc(Cl)cc1)C2(O)Cn1cncn1 (stereo not drawn) [Compound I-101, 5-(4-chlorobenzyl)-1,1-dimethyl-4-(1H-1,2,4-triazol-1-ylmethyl)-4-spiro[2.4]heptanol]
- inhibition at 50 µg/mL [1]: > 90%
- inhibition at 50 µg/mL [2]: > 90%
- inhibition at 50 µg/mL [3]: > 90%
- inhibition at 50 µg/mL [4]: > 90%
- inhibition at 50 µg/mL [5]: 70 to 90%
- inhibition at 50 µg/mL [6]: > 90%
- inhibition at 50 µg/mL [7]: > 90%
- inhibition at 50 µg/mL [8]: 70 to 90%
- inhibition at 50 µg/mL [9]: > 90%
- inhibition at 50 µg/mL [10]: > 90%
- inhibition at 50 µg/mL [11]: > 90%
- inhibition at 50 µg/mL [12]: 70 to 90%
- inhibition at 50 µg/mL [13]: > 90%
- inhibition at 50 µg/mL [14]: 70 to 90%
- inhibition at 50 µg/mL [15]: > 90%
- inhibition at 50 µg/mL [16]: > 90%
- inhibition at 50 µg/mL [17]: > 90%
- inhibition at 50 µg/mL [18]: 70 to 90%
- inhibition at 50 µg/mL [19]: > 90%
- inhibition at 50 µg/mL [20]: 70 to 90%
- inhibition at 50 µg/mL [21]: > 90%
- inhibition at 50 µg/mL [22]: > 90%
- inhibition at 50 µg/mL [23]: > 90%
- inhibition at 50 µg/mL [24]: 70 to 90%
- inhibition at 50 µg/mL [25]: > 90%
- inhibition at 50 µg/mL [26]: > 90%
- inhibition at 50 µg/mL [27]: > 90%
- inhibition at 50 µg/mL [28]: > 90%
- inhibition at 50 µg/mL [29]: 70 to 90%

Compound: OC1(Cn2cncn2)C(Cc2cccc(Cl)c2)CCC12CC2 (single isomer, unassigned) [Compound I-4, 5-(3-chlorobenzyl)-4-(1H-1,2,4-triazol-1-ylmethyl)-4-spiro[2.4]heptanol]
- melting point: 120 to 121 °C
